The source of these data is ChEMBL document CHEMBL1201862, “PubChem BioAssay data set” (2004).

Each structure is given as a SMILES string. Calls of active or inactive are those of the source.

One assay has as its system Streptococcus. As to the kind of experiment: Group A Streptococcus viability loss, dose response, counter-screen for streptokinase expression inhibitor project, luminescence, BacTiterGlo (AID 1915).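 Note: potency for reduction of bacterial viability or growth.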 Type of assay: functional, organism-based. (Counterscreens check selectivity or assay interference.)
The target in assay [1] is T1, Rac GTPase-activating protein 1 (Homo sapiens, UniProt Q9H0H5).
T1 sequence (Q9H0H5 whole entry): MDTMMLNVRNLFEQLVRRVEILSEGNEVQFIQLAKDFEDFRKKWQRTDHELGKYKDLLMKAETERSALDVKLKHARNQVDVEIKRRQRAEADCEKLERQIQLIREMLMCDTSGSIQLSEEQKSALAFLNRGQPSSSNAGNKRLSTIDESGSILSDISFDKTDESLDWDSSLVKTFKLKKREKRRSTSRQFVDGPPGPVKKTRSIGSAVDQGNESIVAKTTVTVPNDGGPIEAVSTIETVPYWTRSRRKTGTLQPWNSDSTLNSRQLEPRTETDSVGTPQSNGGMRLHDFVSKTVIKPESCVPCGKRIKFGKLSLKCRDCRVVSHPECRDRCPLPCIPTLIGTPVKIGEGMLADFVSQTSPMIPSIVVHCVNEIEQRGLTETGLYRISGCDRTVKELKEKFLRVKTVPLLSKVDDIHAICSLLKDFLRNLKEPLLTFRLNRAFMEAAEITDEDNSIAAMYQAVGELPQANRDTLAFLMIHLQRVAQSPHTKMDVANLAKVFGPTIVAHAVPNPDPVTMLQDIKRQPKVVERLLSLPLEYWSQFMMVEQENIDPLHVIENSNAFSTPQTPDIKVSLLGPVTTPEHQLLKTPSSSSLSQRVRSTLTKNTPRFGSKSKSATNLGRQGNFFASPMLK
As to the kind of experiment: MgcRacGAP GTPase-activating activity inhibitors, confirmation, biochemical, ADP Hunter fluorescence, primary and confirmatory (AID 624330). Type of assay: functional.

Take `Cc1cccc(C)c1-n1cccc1/C=C1\SC(=S)N(c2cccc(C(=O)O)c2)C1=O`: in the assay on Streptococcus, the EC50 (as a rule, the concentration giving half of the maximal effect) is 8.78 µM (active).
Regarding `COc1ccc(S(=O)(=O)/N=C2\C=C(Nc3ccc(O)cc3)C(=O)c3ccccc32)cc1`, the 50% inhibitory concentration (IC50) (usually the point on the concentration scale where inhibition reaches its midpoint) in assay [1] is 50.7 µM (active).
